In US8337916B2, “Use of Aphanamixis polystacha extracts or fractions against 5-lipoxygenase mediated diseases” (Laila Nutraceuticals, priority 2007, dated 2012):

Legend:
[1] = DPPH free radical scavenging activity (method of Lamaison et al.); type: physicochemical; conditions: methanolic DPPH, 517 nm
[2] = Superoxide radical scavenging activity (NBT method, McCord and Fridovich); type: biochemical; conditions: riboflavin/NBT, phosphate buffer pH 7.8, 560 nm
Experimental: Superoxide radical scavenging activity of test substances was determined by the method of McCord and Fridovich. […] The tubes were mixed well and optical densities were measured at 560 nm. The tubes were uniformly illuminated with an incandescent lamp for 15 min. and the optical densities were measured again at 560 nm. The percentage inhibition of superoxide radical generation was measured by comparing the absorbance values of control and those of the test substances. The IC50 values were obtained from the plot drawn of the concentration (μg) verses percentage inhibition.

paw edema = assay: Freund complete adjuvant induced arthritis model, paw edema; type: in vivo, Sprague Dawley rats; conditions: prednisolone 10 mg/kg body weight for 14 days; paw volume 13 days after FCA; vs CMC control
Experimental: The anti-oxidant and anti-inflammatory efficacies of Aphanamixis polystachya extract or fractions were evaluated by an in vivo study in Freund complete adjuvant induced arthritis model of Sprague Dawley rats. The rats of either sex were randomly selected and divided into three groups containing four animals in each group. Rats were supplemented with 50 mg/kg body weight of A. polystachya extract, or prednisolone (10 mg/kg body weight) for 14 days. The animals of control group received only the same volume of 1% Na CMC. At the 14 th day, Freund complete adjuvant (FCA) was injected subcutaneously in the sub-plantar region of the left hind paw of each animal. At the end of experiment, the animals were sacrificed and liver tissue samples were excised and stored in aliquot at −80° C. Blood samples were collected from each animal at a regular interval and paw volumes were measured by Plethysmography equipment after 13 days of FCA inoculation. The difference in volume of edema at the day of FCA injection and at 13th day after induction is considered as the inflammatory response. The in vivo anti-inflammatory response of A. polystachya was estimated by calculating, the percentage of inhibition of paw edema when compared with the CMC supplemented control rats and was compared with that of the positive control group supplemented with prednisolone as shown in FIG. 1.

DPPH method IC50 [1] [µg/mL] | NBT method IC50 (superoxide radical scavenging) [2] [µg/mL] | Compound | inhibition in paw edema (paw edema) [%]
4.1 | 150 | O=C1O[C@H]([C@@H](O)CO)C(O)=C1O [Vitamin C] | 
 |  | C[C@]12C=CC(=O)C=C1CC[C@@H]1[C@@H]2[C@@H](O)C[C@@]2(C)[C@H]1CC[C@]2(O)C(=O)CO [prednisolone] | 47.4
